Experimental data: EP2132185B1, “PYRIMIDINYL-PIPERAZINES USEFUL AS DOPAMINE D3/D2 RECEPTOR LIGANDS” (Richter Gedeon Nyrt., priority 2007, dated 2008)

How the values were obtained:
[1] = biological target: T1, rat recombinant D3 receptors (Rattus norvegicus, UniProt P19020); assay: D3 receptor binding ([3H]spiperone); conditions: rat recombinant D3 receptors expressed in Sf9 cells
T1 construct: purchased Perkin-Elmer 6110139; host or cells: Sf9 cells

male Wistar rats [2] = assay: Catalepsy test; type: in vivo, rat; conditions: for Catalepsy (MED, mg/kg): oral treatment, rats, minimum effective (cataleptic) dose
Description: Thirty minutes after the oral treatment with the test compounds male Wistar rats weighing 200-220 g (n=10/group) were placed in extra-ordinary position: placing both forepaws of the rat on a 10 cm high podium. […] The frequency of cataleptic animals was determined at one, two, three, four and five hours after the treatment. Minimum effective (cataleptic) dose was defined as the dose causing catalepsy at least at two readings (i.e. either at two time points in the same animal or in two different animals at any of the time points).

Alpha-1 receptor = Alpha-1 receptor binding ([3H]-prazosine, rat cortical membrane preparation); conditions: for Ki: rat cortical membrane preparation, [3H]-prazosine, read-out: α-1 Ki
Description: The non-specific binding was determined in the presence of 10 µM phentolamine.

male Wistar rats [3] = assay: Amphetamine-induced hypermotility; type: in vivo; conditions: Rattus norvegicus, 1 h, oral administration one hour before d-amphetamine 0.5 mg/kg sc., read-out: Inhibition of amphetamine-induced hypermotility (ED50, mg/kg)
Description: 4. Amphetamine-Induced Hypermotility
One hour after the oral administration of doses of the test compound or vehicle, male Wistar rats were subcutaneously treated with d-amphetamine (0.5 mg/kg, sc.) and were individually placed in activity cages for one hour. Locomotor activity was measured in a four-channel activity monitor equipped with infrared photobeams Horizontal movement was determined as the number of beam interruptions. Mean ± SE of horizontal activity data of each group was calculated. Percent inhibition of amphetamine-induced increase in locomotion was calculated for each dose of the tested compound. The ED-50 value was determined by linear regression fitted to the dose-response plot.

D2 receptor = biological target: T2, D2 receptor (Rattus norvegicus, UniProt P61169); assay: D2 receptor binding ([3H]spiperone, rat brain striatal membrane preparation); conditions: for Ki: rat brain striatal membrane preparation, [3H]spiperone
T2 construct: on rat brain striatal membrane preparation; from tissue; host or cells: rat brain striatum membranes
T2 sequence (P61169 whole entry): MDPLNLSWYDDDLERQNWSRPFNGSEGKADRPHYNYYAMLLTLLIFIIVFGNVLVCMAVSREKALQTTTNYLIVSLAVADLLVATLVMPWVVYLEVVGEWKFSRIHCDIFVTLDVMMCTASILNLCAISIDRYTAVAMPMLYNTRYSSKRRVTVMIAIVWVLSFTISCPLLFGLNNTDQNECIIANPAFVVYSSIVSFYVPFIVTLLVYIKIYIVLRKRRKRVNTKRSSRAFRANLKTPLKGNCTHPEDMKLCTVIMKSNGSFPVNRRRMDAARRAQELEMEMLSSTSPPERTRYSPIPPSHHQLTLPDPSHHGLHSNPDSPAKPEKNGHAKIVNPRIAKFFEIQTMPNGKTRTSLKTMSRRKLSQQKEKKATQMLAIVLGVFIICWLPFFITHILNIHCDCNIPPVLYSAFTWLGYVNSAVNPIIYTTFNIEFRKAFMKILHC
Description: Non-specific binding was determined in the presence of 1 µM (+) butaclamol.

male Wistar rats [4] = assay: Scopolamine-induced learning disturbance in the water-labyrinth; type: in vivo, rat; conditions: scopolamine 3 mg/kg ip., negative values mean further impairment
Description: 6. Scopolamine-Induced Learning Disturbance in the Water-Labyrinth
The learning process of rats was assessed in a 3-choice point water-labyrinth system. The number of directional turning errors was recorded in three daily trials for three experimental days. Male Wistar rats weighing 180-200 g (n=10 per groups) were treated orally with vehicle or the test compounds 1 hour before each daily session. Scopolamine (3 mg/kg ip.) as amnestic agent was injected 30 minutes prior to the first daily trial. Mean ± SE of errors committed in all the trials was calculated in each group. Percent inhibition of scopolamine-induced increase in the number of errors was calculated for each dose of the tested compound.

T1 sequence (P19020 whole entry): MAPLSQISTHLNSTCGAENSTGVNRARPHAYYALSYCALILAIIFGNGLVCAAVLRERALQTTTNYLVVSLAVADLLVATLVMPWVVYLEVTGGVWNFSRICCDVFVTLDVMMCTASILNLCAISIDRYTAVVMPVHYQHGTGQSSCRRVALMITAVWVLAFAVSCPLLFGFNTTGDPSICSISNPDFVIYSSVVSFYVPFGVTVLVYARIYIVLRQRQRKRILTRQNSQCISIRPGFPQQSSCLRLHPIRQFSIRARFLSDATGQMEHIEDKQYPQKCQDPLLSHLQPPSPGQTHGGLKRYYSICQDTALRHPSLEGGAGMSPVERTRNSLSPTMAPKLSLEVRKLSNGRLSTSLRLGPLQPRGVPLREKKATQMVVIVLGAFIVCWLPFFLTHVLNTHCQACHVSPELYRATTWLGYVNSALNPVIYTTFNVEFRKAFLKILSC

SMILES | Ki [1] [nM] | Ki (Alpha-1 receptor) [nM] | ED50 (male Wistar rats [3]) [mg/kg] | D2 Sel. (D2/D3 selectivity, i.e., Ki for D2 receptor divided by Ki for D3 receptor) (D2 receptor) | Ki (D2 receptor) [nM] | further results
CNc1nc(Cl)c(Cl)c(N2CCN(CCC3CCC(NC(=O)N(C)C)CC3)CC2)n1 (stereo not drawn) [Compound 8, trans-3-(4-{2-[4-(5,6-dichloro-2-methylamino-pyrimidin-4-yl)-piperazin-1-yl]-ethyl}-cyclohexyl-1,1-dimethyl-urea] | 1 to 3 | > 1000 | 0.14 | 7 | 15 to 50 | TI (therapeutic index - catalepsy MED divided by amphetamine hypermotility ED50) (male Wistar rats [2]): >179; Catalepsy (MED, mg/kg) (male Wistar rats [2]): >25 mg/kg; % inhibition (male Wistar rats [4]; Dose 0.025 mg/kg orally): 38%; % inhibition (male Wistar rats [4]; Dose 0.05 mg/kg orally): 65%; % inhibition (male Wistar rats [4]; Dose 1 mg/kg orally): 31%
CNc1nc(Cl)c(Cl)c(N2CCN(CC[C@H]3CC[C@H](NC(=O)N4CCOCC4)CC3)CC2)n1 [Compound 7, trans-morpholine-4-carboxylic acid (4-{2-[4-(5,6-dichloro-2-methylamino-pyrimidin-4-yl)-piperazin-1-yl]-ethyl}-cyclohexyl)-amide] | 1 to 3 | > 1000 | – | – | – | –
CNc1nc(Cl)c(Cl)c(N2CCN(CC[C@H]3CC[C@H](NC(C)=O)CC3)CC2)n1 [Compound 1, Tran-N-(4-{2-[4-(5,6-dichloro-2-methylamino-pyrimidin-4-yl)-piperazin-1-yl]-ethyl}-cyclohexyl)-acetamide] | – | > 1000 | 0.14 | 22 | – | TI (therapeutic index - catalepsy MED divided by amphetamine hypermotility ED50) (male Wistar rats [2]): 714; Catalepsy (MED, mg/kg) (male Wistar rats [2]): 100 mg/kg; % inhibition (male Wistar rats [4]; Dose 0.1 mg/kg orally): 36%; % inhibition (male Wistar rats [4]; Dose 0.2 mg/kg orally): 58%; % inhibition (male Wistar rats [4]; Dose 0.4 mg/kg orally): 61%; % inhibition (male Wistar rats [4]; Dose 0.8 mg/kg orally): 44%
CCNC(=O)N[C@H]1CC[C@H](CCN2CCN(c3nc(NC)nc(Cl)c3Cl)CC2)CC1 [Compound 10, Trans-1-(4-{2-[4-(5,6-dichloro-2-methylamino-pyrimidin-4-yl)-piperazin-1-yl]-ethyl}-cyclohexyl)-3-ethyl-urea] | < 1 | > 1000 | – | 17 | 5 to 15 | –
Cc1nc2n(c(=O)c1CCN1CCC(c3noc4cc(F)ccc34)CC1)CCCC2 [Risperidone, reference compound] | – | – | 0.15 | – | – | α-1 Sel. (Alpha-1 receptor; selectivity column under α-1): 0.07; % inhibition (male Wistar rats [4]; Dose 0.5 mg/kg orally): -15%
CNc1nc(Cl)c(Cl)c(N2CCN(CC[C@H]3CC[C@H](NC(N)=O)CC3)CC2)n1 [Compound 2, Trans-(4-{2-[4-(5,6-dichloro-2-methylamino-pyrimidin-4-yl)-piperazin-1-yl]-ethyl}-cyclohexyl)-urea] | 1 to 3 | > 1000 | – | 27 | 15 to 50 | –
Cc1cc2c(s1)Nc1ccccc1N=C2N1CCN(C)CC1 [Olanzapine, reference compound] | – | – | 1.8 | – | – | % inhibition (male Wistar rats [4]; Dose 1 mg/kg orally): -12%; % inhibition (male Wistar rats [4]; Dose 3 mg/kg orally): -49%
CCNc1nc(Cl)c(Cl)c(N2CCN(CC[C@H]3CC[C@H](NC(C)=O)CC3)CC2)n1 [Compound 6, trans-N-(4-{2-[4-(5,6-dichloro-2-ethylamino-pyrimidin-4-yl)-piperazin-1-yl]-ethyl}-cyclohexyl)-acetamide] | 1 to 3 | > 1000 | – | 23 | 15 to 50 | –
CCC(=O)NC1CCC(CCN2CCN(c3nc(NC)nc(Cl)c3Cl)CC2)CC1 (stereo not drawn) [Compound 11, trans-N-(4-{2-[4-(5,6-dichloro-2-methylamino-pyrimidin-4-yl)-piperazin-1-yl]-ethyl}-cyclohexyl-propionamide] | < 1 | > 1000 | – | 43 | 5 to 15 | –
